Laboratory results as given in PMC3950855 (British Journal of Cancer, 2014).
“And” between values parts separate entries of the source, which are not always exact repeats. Equal entries are not always repeated. Structures can show the parent of a compound that is named as a salt.

What was measured:
GIST = details: cited from earlier work
[1] = Plasma pharmacokinetics by LC/PDA; details: for IM trough levels (mean) / Cmax: 400 mg once daily; for Cmax: human, in vivo, im, 400 mg, IM Cmax (mean)
[2] = salvage treatment, ref Demetri et al, 2006, 2012
[3] = ref Verweij et al, 2004, Blanke et al, 2008a, 2008b

Row | Structure (SMILES) | median time to progression (GIST; [2]) [months] | objective remissions (GIST; [2]) [%] | IM trough levels (mean) ([1]; with pan) [µM] | IM trough levels (mean) ([1]; with pan (combination therapy), ± s.e.m.) | IM trough levels (mean) ([1]; without pan) [µM] | IM trough levels (mean) ([1]; without pan (run-in), ± s.e.m.) | increase of the mean Cmax of IM ([1]; combination with panobinostat vs run-in, not statistically significant) [%] | Cmax ([1]; with pan) [µM] | Cmax ([1]; without pan (7-day run-in), ± s.e.m.) [ng/mL] | median overall survival (GIST; [3]) [years] | patients with long-lasting responses (GIST; [3])
1 | CCN(CC)CCNC(=O)c1c(C)[nH]c(/C=C2\C(=O)Nc3ccc(F)cc32)c1C [sunitinib] | ~6 | 7 |  |  |  |  |  |  |  |  | 
2 | Cc1ccc(NC(=O)c2ccc(CN3CCN(C)CC3)cc2)cc1Nc1nccc(-c2cccnc2)n1 [IM, Imatinib mesylate] |  |  | 2.2 | 1290 ng ml^−1 and 1290 (±440) ng ml^−1 | 1.8 | 1085 ng ml^−1 and 1085 (±480) ng ml^−1 | 23 | 4.3 | 2070 | 5 | 82–86%
